Earlier results in publication PMC3066546, “Development of modified nucleosides that have supremely high anti-HIV activity and low toxicity and prevent the emergence of resistant HIV mutants” (Proceedings of the Japan Academy. Series B, Physical and …, 2011).
Read-outs that look alike come from different tables or passages of the source.

Assays:
[1] = CEM cells, MT4 cells, MAGI-CCR5 cells
RT of the M184V mutant = test system: RT of the M184V mutant; set-up: method as in PMID 15456247; settings: 4′EddCTP compared with RT of wild-type HIV
HIV-1LAI = settings: MTT assay, MT-4 cells
[2] = test system: 41/215 drug-resistant HIV; set-up: method as in PMID 11087576, PMID 11577734, PMID 15200030; settings: MAGI assay
HXB2 (wild type HIV) = test system: HXB2 (wild type HIV); set-up: method as in PMID 11087576, PMID 11577734, PMID 15200030; settings: MAGI assay
[3] = test system: MDR (multidrug-resistant HIV); settings: MAGI assay
[4] = biological target: Y181C (non-nucleoside reverse transcriptase inhibitor-resistant); set-up: method as in PMID 11087576, PMID 11577734, PMID 15200030; settings: MAGI assay
M184I drug-resistant HIV = test system: M184I drug-resistant HIV; set-up: method as in PMID 11087576, PMID 11577734, PMID 15200030; settings: MAGI assay
L74V drug-resistant HIV = test system: L74V drug-resistant HIV; set-up: method as in PMID 11087576, PMID 11577734, PMID 15200030; settings: MAGI assay
[5] = test system: 41/69/ 125/SG drug-resistant HIV; set-up: method as in PMID 11087576, PMID 11577734, PMID 15200030; settings: MAGI assay
KH65R drug-resistant HIV = test system: KH65R drug-resistant HIV; set-up: method as in PMID 11087576, PMID 11577734, PMID 15200030; settings: MAGI assay
M184V drug-resistant HIV = test system: M184V drug-resistant HIV; set-up: method as in PMID 11087576, PMID 11577734, PMID 15200030; settings: MAGI assay
ICR mice = settings: for Mortality (%): six-week-old ICR male mice
HIV-1 Wild-type = test system: HIV-1 Wild-type; set-up: method as in PMID 563233, PMID 17548498, PMID 18487070; settings: Table 6
[6] = test system: HIVs isolated from seven heavily drug-experienced patients; set-up: method as in PMID 11302824, PMID 12455229, PMID 15457679; settings: seven heavily drug-experienced AIDS patients, as efficiently as against wild-type HIV
[7] = Table 6
adenosine deaminase [8] = settings: 4′EdA to 4′EdI, 4′Ed2AA to 4′EdG
adenosine deaminase [9] = test system: adenosine deaminase; set-up: method as in PMID 563233, PMID 17548498, PMID 18487070
[10] = test system: recombinant rat DNA polymerase β; set-up: method as in earlier work; settings: recombinant rat enzyme
[11] = test system: calf thymus DNA polymerase α; set-up: method as in earlier work; settings: calf thymus enzyme
HIV-1 M184V = test system: HIV-1 M184V; set-up: method as in PMID 563233, PMID 17548498, PMID 18487070; settings: Table 6
HIV-1MDR = test system: HIV-1MDR; set-up: method as in PMID 18487070; settings: Table 7; read-out: Anti-HIV activity (MAGI assay, µg) HIV-1MDR
HIV-1wild = test system: HIV-1wild; set-up: method as in PMID 18487070; settings: Table 7; read-out: Anti-HIV activity (MAGI assay, µg) HIV-1wild
HIV-1M184V = test system: HIV-1M184V; set-up: method as in PMID 18487070; settings: Table 7; read-out: Anti-HIV activity (MAGI assay, µg) HIV-1M184V
HIV = test system: HIV; set-up: method as in PMID 7764216; settings: Table 1; for EC50: anti-HIV
[12] = cytotoxic concentration, Table 1
[13] = set-up: method as in PMID 563233, PMID 17548498, PMID 18487070; settings: acidic conditions of gastric juices (pH 1.06), 24 ℃
[14] = biological target: human mitochondrion DNA polymerase (DNA polymerase γ); set-up: method as in PMID 17548498, PMID 18487070; settings: read-out: EC50 to inhibit the incorporation of dATP
[15] = intraveneous administration, 1 mg/Kg
[16] = intraveneous administration, 3 mg/Kg
[17] = intraveneous administration, 10 mg/Kg
[18] = intraveneous administration, 100 mg/Kg

3′-azido-3′-deoxythymidine-5′-O-phosphate [AZTTP, reference compound]
intracellular half-life (T1/2) [1]: 3 h

C#CC1(COP(=O)(O)OP(=O)(O)OP(=O)(O)O)CCC(n2ccc(N)nc2=O)O1 (single isomer, unassigned) [L-isomer of 4′EddCTP]
activity against RT of the M184V mutant (RT of the M184V mutant): not active

C#C[C@]1(CO)O[C@@H](n2cc(F)c(N)nc2=O)C[C@@H]1O [4′-C-ethynyl-2′-deoxy-5-fluorocytidine]
CC50 (MT-4 cells; Table 2): > 100000 nM
toxicity with other cells (other cells): toxic
EC50 (HIV-1LAI; Table 2): 30 nM

C#C[C@]1(CO)O[C@@H](n2ccc(N)nc2=O)[C@@H](O)[C@@H]1O [4′EaraC, 4′-C-ethynyl D-arabino-furanosyl cytosine]
CC50 (MT-4 cells; Table 2): 2000 nM
EC50 [2]: 26 nM
EC50 (HXB2 (wild type HIV)): 7.1 nM
EC50 [3]: 7.9 nM
EC50 [4]: 16 nM
EC50 (M184I drug-resistant HIV): 480 nM
EC50 (HIV-1LAI; Table 2): 43 nM
CC50 (Hela cells; Table 4, Hela cells): > 200000 nM
EC50 (L74V drug-resistant HIV): 26 nM
EC50 [5]: 170 nM
EC50 (KH65R drug-resistant HIV): 15 nM
EC50 (M184V drug-resistant HIV): 710 nM

C#C[C@]1(CO)O[C@@H](n2cnc3c(N)nc(N)nc32)C[C@@H]1O [4′Ed2AA, 2′-deoxy-4′-C-ethynyl-2-aminoadenosine]
Mortality (%) (ICR mice; [15]): 0%
Mortality (%) (ICR mice; [16]): 0%
Mortality (%) (ICR mice; [17]): 100%
Mortality (%) (ICR mice; [18]): 100%
survival days of mice after administration (ICR mice; intraveneous, 10 mg/Kg): 2 days
survival days of mice after administration (ICR mice; intraveneous, 100 mg/Kg): 1 days
Mortality (%) (ICR mice; oral administration, 1 mg/Kg): 0%
Mortality (%) (ICR mice; oral administration, 3 mg/Kg): 100%
Mortality (%) (ICR mice; oral administration, 10 mg/Kg): 100%
Mortality (%) (ICR mice; oral administration, 100 mg/Kg): 100%
survival days of mice after administration (ICR mice; oral, 3 mg/Kg): 2 days
survival days of mice after administration (ICR mice; oral, 10 mg/Kg): 2 days
survival days of mice after administration (ICR mice; oral, 100 mg/Kg): 1 days
EC50 (HIV-1 Wild-type): 0.34 nM
CC50 (MT-4 cells; Table 3): 820 nM
EC50 [2]: 1.7 nM
EC50 (HXB2 (wild type HIV)): 1.4 nM
potency against HIVs isolated from patients [6]: highly potent
EC50 [3]: 1 nM
EC50 [4]: 0.8 nM
EC50 (M184I drug-resistant HIV): 2.7 nM
EC50 (HIV-1LAI; Table 3): 0.3 nM
CC50 [7]: 900 nM
CC50 (Hela cells; Table 4, Hela cells): > 200000 nM
EC50 (L74V drug-resistant HIV): 0.7 nM
conversion by adenosine deaminase in mice (adenosine deaminase [8]): easily converted
EC50 [5]: 4.1 nM
EC50 (KH65R drug-resistant HIV): 0.35 nM
EC50 (M184V drug-resistant HIV): 5.9 nM

C#C[C@]1(CO)O[C@@H](n2cnc3c(N)ncnc32)C[C@@H]1O [4′EdA, 2′-deoxy-4′-C-ethynyladenosine]
Mortality (%) (ICR mice; [15]): 0%
Mortality (%) (ICR mice; [16]): 0%
Mortality (%) (ICR mice; [17]): 0%
Mortality (%) (ICR mice; [18]): 0%
Mortality (%) (ICR mice; oral administration, 1 mg/Kg): 0%
Mortality (%) (ICR mice; oral administration, 3 mg/Kg): 0%
Mortality (%) (ICR mice; oral administration, 10 mg/Kg): 0%
Mortality (%) (ICR mice; oral administration, 100 mg/Kg): 0%
survival of mice (ICR mice; single dosage of 3–100 mg kg−1, both intravenous and oral): All eight mice survived
CC50 (MT-4 cells; Table 2): 16000 nM
CC50 (MT-4 cells; Table 3): 16000 nM
EC50 [2]: 12 nM
EC50 (HXB2 (wild type HIV)): 8 nM
potency against HIVs isolated from patients [6]: highly potent
EC50 [3]: 6.2 nM
EC50 [4]: 11 nM
time to complete deamination by adenosine deaminase (adenosine deaminase [9]): 60 min
EC50 (M184I drug-resistant HIV): 22 nM
EC50 (HIV-1LAI; Table 2): 9.8 nM
CC50 (Hela cells; Table 4, Hela cells): > 200000 nM
EC50 (L74V drug-resistant HIV): 4 nM
conversion by adenosine deaminase in mice (adenosine deaminase [8]): easily converted to 4′EdI
EC50 [5]: 65 nM
EC50 (KH65R drug-resistant HIV): 3.3 nM
EC50 (M184V drug-resistant HIV): 47 nM

C#C[C@]1(CO)O[C@@H](n2ccc(N)nc2=O)C[C@@H]1O [4′EdC, 4′-C-ethynyl-2′-deoxycytidine]
EC50 [2]: 6 nM
EC50 (HXB2 (wild type HIV)): 1.2 nM
EC50 [4]: 2.1 nM
EC50 (M184I drug-resistant HIV): 2.6 nM
EC50 (HIV-1LAI; Table 2, listed as 4′-C-ethynyl-2′-deoxycytidine): 4.8 nM
EC50 (L74V drug-resistant HIV): 1.3 nM
EC50 [5]: 15 nM
EC50 (KH65R drug-resistant HIV): 0.8 nM
EC50 (M184V drug-resistant HIV): 2.4 nM

C#C[C@]1(CO)O[C@@H](n2cnc3c(=O)[nH]c(N)nc32)C[C@@H]1O [4′EdG, 2′-deoxy-4′-C-ethynylguanosine]
Mortality (%) (ICR mice; [15]): 0%
Mortality (%) (ICR mice; [16]): 100%
Mortality (%) (ICR mice; [17]): 100%
Mortality (%) (ICR mice; [18]): 100%
survival days of mice after administration (ICR mice; intraveneous, 3 mg/Kg): 4 days
survival days of mice after administration (ICR mice; intraveneous, 10 mg/Kg): 2 days
survival days of mice after administration (ICR mice; intraveneous, 100 mg/Kg): 1 days
Mortality (%) (ICR mice; oral administration, 1 mg/Kg): 0%
Mortality (%) (ICR mice; oral administration, 3 mg/Kg): 100%
Mortality (%) (ICR mice; oral administration, 10 mg/Kg): 100%
Mortality (%) (ICR mice; oral administration, 100 mg/Kg): 100%
survival days of mice after administration (ICR mice; oral, 3 mg/Kg): 4 days
survival days of mice after administration (ICR mice; oral, 10 mg/Kg): 4 days
survival days of mice after administration (ICR mice; oral, 100 mg/Kg): 1 days
CC50 (MT-4 cells; Table 3): 1500 nM
EC50 [2]: 19 nM
EC50 (HXB2 (wild type HIV)): 7 nM
potency against HIVs isolated from patients [6]: highly potent
EC50 [3]: 4.8 nM
EC50 [4]: 10 nM
EC50 (M184I drug-resistant HIV): 4.1 nM
EC50 (HIV-1LAI; Table 3): 1.4 nM
CC50 (Hela cells; Table 4, Hela cells): 52000 nM
EC50 (L74V drug-resistant HIV): 1.2 nM
EC50 [5]: 6.8 nM
EC50 (KH65R drug-resistant HIV): 1 nM
EC50 (M184V drug-resistant HIV): 8 nM

CC1(COP(=O)(O)OP(=O)(O)OP(=O)(O)O)OC(n2ccc(N)nc2=O)C(O)C1O (stereo not drawn) [4′MAraCTP]
chain termination of DNA polymerase β [10]: chain terminator
chain termination of DNA polymerase α [11]: chain terminator

CC1(COP(=O)(O)OP(=O)(O)OP(=O)(O)O)OC(n2ccc(N)nc2=O)CC1O (stereo not drawn) [4′MdCTP]
chain termination of DNA polymerase β [10]: chain terminator
chain termination of DNA polymerase α [11]: chain terminator

Cc1cn([C@H]2C[C@H](N=[N+]=[N-])[C@@H](CO)O2)c(=O)[nH]c1=O [AZT, 3′-azido-3′-deoxythymidine, reference compound]
EC50 (HIV-1 M184V): 16 nM
EC50 (HIV-1 Wild-type): 3.2 nM
CC50 (MT-4 cells): 29400 nM
EC50 [2]: 300 nM
EC50 (HXB2 (wild type HIV)): 22 nM
EC50 (HIV-1MDR): 74300 nM
EC50 [3]: 15300 nM
EC50 [4]: 14 nM
EC50 (HIV-1wild): 170 nM
EC50 (M184I drug-resistant HIV): 17 nM
EC50 (HIV-1LAI; Table 2): 3.2 nM
EC50 (HIV-1LAI; Table 3): 3.2 nM
EC50 (HIV-1M184V): 130 nM
CC50 (Hela cells): > 100000 nM
EC50 (HIV): 1 nM
EC50 (L74V drug-resistant HIV): 20 nM
EC50 [5]: 1600 nM
EC50 (KH65R drug-resistant HIV): 20 nM
EC50 (M184V drug-resistant HIV): 10 nM

Nc1ncnc2c1ncn2[C@H]1CC[C@@H](CO)O1 [ddA, 2′,3′-dideoxyadenosine, reference compound]
CC50 [12]: > 500000 nM
SI (CC50/EC50) (HIV): >11
EC50 (HIV): 47000 nM
time to complete decomposition [13]: 5 min

Nc1ncnc2c1ncn2[C@H]1CC[C@@H](CO[P@@](=O)(O)O[P@](=O)(O)OP(=O)(O)O)O1 [ddATP, 2′,3′-dideoxyadenosine-5-O-triphosphate, reference compound]
EC50 [14]: 200 nM
